Reference: PubChem BioAssay AID330 (DTP/NCI, 2004)
Where “and” joins values, the source holds several entries; their conditions need not be identical. Equal values may be shown once. Inconclusive results and toxic doses are left out. Rule for the calls: active = survival T/C of 150% or more; inactive = T/C below 125% in these data.

System: P388 leukemia ip, CD2F1 mice, survival T/C
Test: NCI In Vivo Anticancer Drug Screen. Data for tumor model P388 Leukemia (intraperitoneal) in CD2F1 (CDF1) mice
Details: endpoint: median survival time, higher = longer survival
Procedure, shortened: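 Mice carrying the transplanted tumor received test compound or vehicle. Survival was recorded in each group, and the value is the treated-group measurement divided by that of the vehicle-treated control group.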

Measured: T/C

CC(C)NC(=O)OCc1c(COC(=O)NC(C)C)c(-c2ccc(Cl)c(Cl)c2)n2c1CCC2
inactive: dose: 0.58 mg/kg/injection, schedule: Q01DX009 (ip), vehicle: saline with Tween-80 112 % of control | dose: 1.17 mg/kg/injection, schedule: Q01DX009 (ip), vehicle: saline with Tween-80 120 % of control | dose: 1.5 mg/kg/injection, schedule: Q01DX001 (ip), vehicle: other 109 % of control | dose: 1.5 mg/kg/injection, schedule: Q01DX001 (iv), vehicle: other 102 % of control | dose: 1.5 mg/kg/injection, schedule: Q01DX005 (ip), vehicle: other 122 % of control | dose: 1.5 mg/kg/injection, schedule: Q01DX005 (iv), vehicle: other 107 % of control | dose: 1.5 mg/kg/injection, schedule: Q01DX005 (oral), vehicle: other 98 % of control | dose: 1.5 mg/kg/injection, schedule: Q01DX009 (oral), vehicle: other 100 % of control | dose: 1.56 mg/kg/injection, schedule: Q01DX009 (ip), vehicle: distilled water + Tween-80 122 % of control | dose: 3.0 mg/kg/injection, schedule: Q01DX001 (ip), vehicle: other 116 % of control | dose: 3.0 mg/kg/injection, schedule: Q01DX001 (iv), vehicle: other 100 % of control | dose: 3.0 mg/kg/injection, schedule: Q01DX001 (oral), vehicle: other 98 % of control | dose: 3.0 mg/kg/injection, schedule: Q01DX005 (iv), vehicle: other 108 % of control | dose: 3.0 mg/kg/injection, schedule: Q01DX005 (oral), vehicle: other 100 % of control | dose: 3.0 mg/kg/injection, schedule: Q01DX009 (oral), vehicle: other 100 % of control | dose: 3.13 mg/kg/injection, schedule: Q01DX009 (ip), vehicle: distilled water + Tween-80 117 % of control | dose: 6.0 mg/kg/injection, schedule: Q01DX001 (iv), vehicle: other 104 % of control | dose: 6.0 mg/kg/injection, schedule: Q01DX001 (oral), vehicle: other 99 % of control | dose: 6.0 mg/kg/injection, schedule: Q01DX005 (iv), vehicle: other 114 % of control | dose: 6.0 mg/kg/injection, schedule: Q01DX005 (oral), vehicle: other 98 % of control | dose: 6.0 mg/kg/injection, schedule: Q01DX009 (oral), vehicle: other 100 % of control | dose: 6.25 mg/kg/injection, schedule: Q01DX009 (oral), vehicle: distilled water + Tween-80 97 % of control | dose: 7.5 mg/kg/injection, schedule: Q01DX005 (ip), vehicle: saline with Tween-80 118 % of control | dose: 12.0 mg/kg/injection, schedule: Q01DX001 (iv), vehicle: other 113 % of control | dose: 12.0 mg/kg/injection, schedule: Q01DX001 (oral), vehicle: other 100 % of control | dose: 12.0 mg/kg/injection, schedule: Q01DX005 (oral), vehicle: other 100 % of control | dose: 12.0 mg/kg/injection, schedule: Q01DX009 (oral), vehicle: other 102 % of control | dose: 12.5 mg/kg/injection, schedule: Q01DX009 (oral), vehicle: distilled water + Tween-80 103 % of control | dose: 24.0 mg/kg/injection, schedule: Q01DX001 (oral), vehicle: other 100 % of control | dose: 24.0 mg/kg/injection, schedule: Q01DX005 (oral), vehicle: other 102 % of control | dose: 24.0 mg/kg/injection, schedule: Q01DX009 (oral), vehicle: other 102 % of control | dose: 25.0 mg/kg/injection, schedule: Q01DX009 (ip), vehicle: other 100 % of control | dose: 25.0 mg/kg/injection, schedule: Q01DX009 (oral), vehicle: distilled water + Tween-80 92 % of control | dose: 48.0 mg/kg/injection, schedule: Q01DX001 (oral), vehicle: other 100 % of control | dose: 48.0 mg/kg/injection, schedule: Q01DX005 (oral), vehicle: other 107 % of control | dose: 48.0 mg/kg/injection, schedule: Q01DX009 (ip), vehicle: other 106 % of control | dose: 48.0 mg/kg/injection, schedule: Q01DX009 (oral), vehicle: other 119 % of control | dose: 50.0 mg/kg/injection, schedule: Q01DX009 (oral), vehicle: distilled water + Tween-80 110 % of control | dose: 100.0 mg/kg/injection, schedule: Q01DX005 (ip), vehicle: saline with Tween-80 90 % of control | dose: 100.0 mg/kg/injection, schedule: Q01DX009 (ip), vehicle: distilled water + Tween-80 113 % of control | dose: 100.0 mg/kg/injection, schedule: Q01DX009 (oral), vehicle: distilled water + Tween-80 97 % of control | dose: 200.0 mg/kg/injection, schedule: Q01DX005 (ip), vehicle: distilled water + Tween-80 104 % of control | dose: 200.0 mg/kg/injection, schedule: Q01DX009 (oral), vehicle: distilled water + Tween-80 111 % of control
active: dose: 2.34 mg/kg/injection, schedule: Q01DX009 (ip), vehicle: other 151 % of control | dose: 2.34 mg/kg/injection, schedule: Q01DX009 (ip), vehicle: saline with Tween-80 151 % of control | dose: 4.69 mg/kg/injection, schedule: Q01DX009 (ip), vehicle: other 154 % of control | dose: 4.69 mg/kg/injection, schedule: Q01DX009 (ip), vehicle: saline with Tween-80 150 % of control and 153 % of control | dose: 6.0 mg/kg/injection, schedule: Q01DX009 (ip), vehicle: other 152 % of control | dose: 6.25 mg/kg/injection, schedule: Q01DX005 (ip), vehicle: Klucel (hydroxypropylcellulose) (HPC) 164 % of control and 168 % of control | dose: 6.25 mg/kg/injection, schedule: Q01DX005 (ip), vehicle: other 164 % of control | dose: 6.25 mg/kg/injection, schedule: Q01DX005 (ip), vehicle: saline with Tween-80 151 % of control | dose: 6.25 mg/kg/injection, schedule: Q01DX009 (ip), vehicle: other 155 % of control and 160 % of control | dose: 6.25 mg/kg/injection, schedule: Q01DX009 (ip), vehicle: saline with Tween-80 158 % of control | dose: 9.38 mg/kg/injection, schedule: Q01DX009 (ip), vehicle: other 154 % of control and 198 % of control | dose: 9.38 mg/kg/injection, schedule: Q01DX009 (ip), vehicle: saline with Tween-80 157 % of control | dose: 12.0 mg/kg/injection, schedule: Q01DX005 (ip), vehicle: other 153 % of control | dose: 12.0 mg/kg/injection, schedule: Q01DX009 (ip), vehicle: other 169 % of control | dose: 12.5 mg/kg/injection, schedule: Q01DX005 (ip), vehicle: Klucel (hydroxypropylcellulose) (HPC) 151 % of control and 160 % of control and 163 % of control | dose: 12.5 mg/kg/injection, schedule: Q01DX005 (ip), vehicle: other 177 % of control | dose: 12.5 mg/kg/injection, schedule: Q01DX009 (ip), vehicle: other 165 % of control and 167 % of control | dose: 12.5 mg/kg/injection, schedule: Q01DX009 (ip), vehicle: saline with Tween-80 151 % of control | dose: 18.75 mg/kg/injection, schedule: Q01DX009 (ip), vehicle: saline with Tween-80 166 % of control and 167 % of control | dose: 24.0 mg/kg/injection, schedule: Q01DX005 (ip), vehicle: other 178 % of control | dose: 24.0 mg/kg/injection, schedule: Q01DX009 (ip), vehicle: other 184 % of control | dose: 25.0 mg/kg/injection, schedule: Q01DX005 (ip), vehicle: Klucel (hydroxypropylcellulose) (HPC) 154 % of control and 168 % of control and 179 % of control | dose: 25.0 mg/kg/injection, schedule: Q01DX005 (ip), vehicle: other 199 % of control | dose: 25.0 mg/kg/injection, schedule: Q01DX005 (ip), vehicle: saline with Tween-80 162 % of control | dose: 25.0 mg/kg/injection, schedule: Q01DX009 (ip), vehicle: Klucel (hydroxypropylcellulose) (HPC) 168 % of control | dose: 25.0 mg/kg/injection, schedule: Q01DX009 (ip), vehicle: saline with Tween-80 166 % of control | dose: 40.0 mg/kg/injection, schedule: Q01DX009 (ip), vehicle: Klucel (hydroxypropylcellulose) (HPC) 155 % of control | dose: 48.0 mg/kg/injection, schedule: Q01DX001 (ip), vehicle: other 168 % of control | dose: 48.0 mg/kg/injection, schedule: Q01DX005 (ip), vehicle: other 174 % of control | dose: 50.0 mg/kg/injection, schedule: Q01DX005 (ip), vehicle: Klucel (hydroxypropylcellulose) (HPC) 163 % of control and 205 % of control and 206 % of control | dose: 50.0 mg/kg/injection, schedule: Q01DX005 (ip), vehicle: other 186 % of control | dose: 50.0 mg/kg/injection, schedule: Q01DX009 (ip), vehicle: Klucel (hydroxypropylcellulose) (HPC) 239 % of control | dose: 50.0 mg/kg/injection, schedule: Q01DX009 (ip), vehicle: saline with Tween-80 187 % of control | dose: 60.0 mg/kg/injection, schedule: Q01DX005 (ip), vehicle: saline with Tween-80 151 % of control | dose: 100.0 mg/kg/injection, schedule: Q01DX009 (ip), vehicle: saline with Tween-80 177 % of control

NC(=O)c1ccc(N=Nc2c(O)c3ccccc3[nH]c2=O)cc1
inactive: dose: 50.0 mg/kg/injection, schedule: Q01DX005 (ip), vehicle: saline + Tween-80 + alcohol 105 % of control | dose: 100.0 mg/kg/injection, schedule: Q01DX005 (ip), vehicle: saline + Tween-80 + alcohol 93 % of control | dose: 200.0 mg/kg/injection, schedule: Q01DX005 (ip), vehicle: saline + Tween-80 + alcohol 89 % of control
